The values below come from patent publication US9073961B2, “Substitution derivatives of N6 -benzyladenosine-5′-monophosphate, methods of preparation thereof, use thereof as medicaments, and therapeutic preparations containing these compounds” (UNIVERZITA PALACKEHO V OLOMOUCI, priority 2010, dated 2015).

Broadly, the GI50 is the concentration giving 50% growth inhibition.

Each structure is given as a SMILES string. A value given as a limit tells only on which side of the number the result lay.

What all share (format): cell-based
In one experiment the test system is MCF-7 (breast carcinoma). As to the kind of experiment: Calcein AM cytotoxicity assay, MCF7. Particulars: 72 hours incubation. In a few lines:
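Esterase-based viability assay: living cells hydrolyse Calcein AM to fluorescent calcein. Compound exposure lasts 72 h at 37 °C, 5% CO2, 100% humidity, top concentration 166.7 μM. The GI50 is the concentration reducing esterase activity by 50%.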

In the next experiment the test system is Human lymphocytes. As to the kind of experiment: Immunosuppressive activity, 3H-thymidine incorporation in concanavalin A activated lymphocytes. Particulars: 72 hours, [3H]-TdR incorporation, read-out: Human lymphocytes ED50. In a few lines: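 Ficoll-separated peripheral blood mononuclear cells from healthy donors, stimulated with concanavalin A and exposed to six 4-fold compound dilutions (top 266.7 μM) for 72 h at 37 °C. Proliferation read by 6 h [3H]-thymidine pulse and scintillation counting; ED50 taken from dose-response curves versus control wells.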
A general note: Incorporation of labelled thymidine or its analogues reports DNA synthesis.

For the next experiment, the system named is Leukemia cell line CEM. As to the kind of experiment: Flow cytometry analysis of apoptosis (DNA fragmentation, sub-G1) in CEM. As to the method:
One of the hallmarks of apoptosis is fragmentation of DNA. It can be measured by flowcytometry of the cells stained with propidium iodide. Because the fragmentation results in a loss of a fraction of the nuclear DNA, apoptotic cells have a lower DNA content than cells in G1 phase of cell cycle and can be detected as a subG1 peak in the histogram.
Leukemia cell line CEM was cultured in cell culture medium (DMEM containing 5 g/l glucose, 2 mM glutamine, 100 U/ml penicillin, 100 μg/ml streptomycine, 10% fetal calf serum and sodium bicarbonate). 24 hours before treatment, cell suspensions were centrifuged, diluted with fresh medium to concentration of 100000 cells per ml with fresh medium and pipetted in 10 ml aliquotes Petri dishes. After an incubation for a given time period, the cells were collected by centrifugation (4° C., 600 g), washed with PBS (4° C.) and fixed with 70% ethanol at −20° C. overnight. Low molecular weight DNA fragmentse were extracted with citrate buffer (11.36 g trisodium citrate dihydrate/l). The nuclei were stained with the solution of propidium iodide in PBS (10 μg/ml) containing RNase A (60 IU per sample). After 1 hour incubation the samples were analyzed by flowcytometry (excitation 488 nm, emission above 620 nm).
On the technique in general: Flow cytometry measures light scatter and fluorescence of single cells or particles in a stream.

`O=P(O)(O)OC[C@H]1O[C@@H](n2cnc3c(NCc4ccccc4O)ncnc32)[C@H](O)[C@@H]1O` [Compound 21, 6-(2-hydroxybenzylamino)purine riboside-5′-monophosphate]: in the experiment on MCF-7 (breast carcinoma), the 50% growth inhibitory concentration (GI50) is 10.5 µM. Further, the EC50 in the experiment on Human lymphocytes was determined as 6.7 µM. Moreover, the “time after which DNA fragmentation effect was visible” value in the experiment on Leukemia cell line CEM was at most 12 h. Also, the “induction of DNA fragmentation (apoptotic sub-G1 fraction)” value in the experiment on Leukemia cell line CEM (IC50, triple IC50 and fivefold IC50) is “induction of DNA fragmentation is dependent on the concentration of compound 21 and the time of the treatment”.
